Source: PMC12860872, “Preclinical evaluation of DOTAGA.Glu.(FAPI)2 and DO3A.Glu.(FAPI)2 as theranostics with human dosimetry extrapolation to lutetium-177 and terbium-161 analogs” (European Journal of Nuclear Medicine and Molecular Imaging, 2025)
Values joined by “and” are separate entries in the source; they are usually repeats but may differ in a detail not shown here. Equal values may be shown once.

Assay: Extrapolated human dosimetry (OLINDA/EXM, ICRP-89 phantoms)
Procedure: To address inter-animal variability, the TIACs for each source organ were calculated from both the mean nTACs and the nTACs obtainend from fitting the mean ± 1 standard deviation (SD) of the normalized time-activity data, providing upper and lower bounds.
The mice-to-human TIAC extrapolation accounted for species-specific differences in relative source organ masses, m(organ), as compared to the total body weight (WB), for the mice (m) and human (h) models respectively.
(§1) The human organ masses, m(organ)h, were obtained from ICRP-89 adult male and female reference phantoms, while the murine organ masses, m(organ)m, were derived from the standard MOBY mouse model. The extrapolated human TIACs, TIACh were entered in the OLINDA/EXM software to compute the absorbed doses to target organs and the effective dose for adult male, female, and gender-averaged human models. […]
The TIACs, for [177Lu]Lu-DOTAGA.Glu.(FAPI)2 and [177Lu]Lu-DO3A.Glu.(FAPI)2, were determined by time integration of the nTACs. To account for the inter-animal variability, the TIACs for each source organ were calculated using both the mean nTACs and the nTACs obtainend from fitting the mean ±1 standard deviation (SD) of the normalized time-activity data. This approach provided the upper and the lower bounds for the estimated TIACs.
The mice-to-human TIAC extrapolation was obtained considering the different (species-specific) relative source organ masses, m(organ), as compared to the total body weight (WB), for the mice (m) and human (h) models respectively.
as §1, with “the” for “ICRP-89”, “models phantoms defined in ICRP-89,” for “phantoms,”, “TIACs values, TIACh, for each source organ” for “TIACs, TIACh”, “input into the kinetic module of” for “entered in”, “software (version 2.1, HERMES Medical Solutions AB, Stockholm, Sweden)” for “software”

[1] = ICRP 89 Adult Female, extrapolated
[2] = ICRP 89 Adult Male, extrapolated

SMILES: N#C[C@@H]1CC(F)(F)CN1C(=O)CNC(=O)c1ccnc2ccc(OCCCCNC(=O)CC[C@H](NC(=O)CN3CCN(CC(=O)[O-])CCN(CC(=O)[O-])CCN(CC(=O)[O-])CC3)C(=O)NCCCCOc3ccc4nccc(C(=O)NCC(=O)N5CC(F)(F)C[C@H]5C#N)c4c3)cc12.[161Tb+3] [[^161Tb]Tb-DO3A.Glu.(FAPI)2]
- Absorbed dose (AD average) Adrenals [1]: 1.39E-02 mGy/Mbq
- Absorbed dose (AD average) Brain [1]: 3.68E-02 mGy/Mbq
- Absorbed dose (AD average) Breasts [1]: 3.54E-02 mGy/Mbq
- Absorbed dose (AD average) Esophagus [1]: 3.67E-02 mGy/Mbq
- Absorbed dose (AD average) Eyes [1]: 3.68E-02 mGy/Mbq
- Absorbed dose (AD average) Gallbladder Wall [1]: 3.79E-02 mGy/Mbq
- Absorbed dose (AD average) Heart Wall [1]: 3.39E-02 mGy/Mbq
- Absorbed dose (AD average) Kidneys [1]: 3.48E-02 ± 0.001 mGy/Mbq and 3.48E-02 mGy/Mbq
- Absorbed dose (AD average) Left colon [1]: 3.75E-02 mGy/Mbq
- Absorbed dose (AD average) Liver [1]: 1.01E-01 ± 0.004 mGy/Mbq and 1.01E-01 mGy/Mbq
- Absorbed dose (AD average) Lungs [1]: 5.78E-02 ± 0.01 mGy/Mbq and 5.78E-02 mGy/Mbq
- Absorbed dose (AD average) Osteogenic Cells [1]: 8.70E-02 ± 0.003 mGy/Mbq and 8.70E-02 mGy/Mbq
- Absorbed dose (AD average) Ovaries [1]: 3.75E-02 mGy/Mbq
- Absorbed dose (AD average) Pancreas [1]: 3.59E-02 ± 0.001 mGy/Mbq and 3.59E-02 mGy/Mbq
- Absorbed dose (AD average) Rectum [1]: 3.75E-02 mGy/Mbq
- Absorbed dose (AD average) Red Marrow [1]: 4.37E-02 ± 0.002 mGy/Mbq and 4.37E-02 mGy/Mbq
- Absorbed dose (AD average) Right colon [1]: 3.76E-02 mGy/Mbq
- Absorbed dose (AD average) Salivary Glands [1]: 1.22E-01 ± 0.01 mGy/Mbq and 1.22E-01 mGy/Mbq
- Absorbed dose (AD average) Small Intestine [1]: 3.72E-02 ± 0.002 mGy/Mbq and 3.72E-02 mGy/Mbq
- Absorbed dose (AD average) Spleen [1]: 8.87E-02 ± 0.004 mGy/Mbq and 8.87E-02 mGy/Mbq
- Absorbed dose (AD average) Stomach Wall [1]: 3.75E-02 mGy/Mbq
- Absorbed dose (AD average) Thymus [1]: 3.72E-02 mGy/Mbq
- Absorbed dose (AD average) Thyroid [1]: 3.64E-02 mGy/Mbq
- Absorbed dose (AD average) Total Body [1]: 4.70E-02 ± 0.002 mGy/Mbq and 4.70E-02 mGy/Mbq
- Absorbed dose (AD average) Urinary Bladder Wall [1]: 3.70E-02 mGy/Mbq
- Absorbed dose (AD average) Uterus [1]: 3.73E-02 mGy/Mbq
- Effective dose (average) [1]: 4.10E-02
- Absorbed dose (AD average) Adrenals [2]: 1.05E-02 mGy/Mbq
- Absorbed dose (AD average) Brain [2]: 2.80E-02 mGy/Mbq
- Absorbed dose (AD average) Esophagus [2]: 2.84E-02 mGy/Mbq
- Absorbed dose (AD average) Eyes [2]: 2.80E-02 mGy/Mbq
- Absorbed dose (AD average) Gallbladder Wall [2]: 3.02E-02 mGy/Mbq
- Absorbed dose (AD average) Heart Wall [2]: 2.78E-02 mGy/Mbq
- Absorbed dose (AD average) Kidneys [2]: 2.84E-02 ± 0.001 mGy/Mbq and 2.84E-02 mGy/Mbq
- Absorbed dose (AD average) Left colon [2]: 2.85E-02 mGy/Mbq
- Absorbed dose (AD average) Liver [2]: 8.31E-02 ± 0.003 mGy/Mbq and 8.31E-02 mGy/Mbq
- Absorbed dose (AD average) Lungs [2]: 4.73E-02 ± 0.01 mGy/Mbq and 4.73E-02 mGy/Mbq
- Absorbed dose (AD average) Osteogenic Cells [2]: 8.97E-02 ± 0.003 mGy/Mbq and 8.97E-02 mGy/Mbq
- Absorbed dose (AD average) Pancreas [2]: 2.88E-02 ± 0.001 mGy/Mbq and 2.88E-02 mGy/Mbq
- Absorbed dose (AD average) Prostate [2]: 2.81E-02 mGy/Mbq
- Absorbed dose (AD average) Rectum [2]: 2.84E-02 mGy/Mbq
- Absorbed dose (AD average) Red Marrow [2]: 3.45E-02 ± 0.001 mGy/Mbq and 3.45E-02 mGy/Mbq
- Absorbed dose (AD average) Right colon [2]: 2.86E-02 mGy/Mbq
- Absorbed dose (AD average) Salivary Glands [2]: 1.00E-01 ± 0.01 mGy/Mbq and 1.00E-01 mGy/Mbq
- Absorbed dose (AD average) Small Intestine [2]: 2.85E-02 ± 0.001 mGy/Mbq and 2.85E-02 mGy/Mbq
- Absorbed dose (AD average) Spleen [2]: 7.27E-02 ± 0.003 mGy/Mbq and 7.27E-02 mGy/Mbq
- Absorbed dose (AD average) Stomach Wall [2]: 2.84E-02 mGy/Mbq
- Absorbed dose (AD average) Testes [2]: 2.72E-02 mGy/Mbq
- Absorbed dose (AD average) Thymus [2]: 2.79E-02 mGy/Mbq
- Absorbed dose (AD average) Thyroid [2]: 2.81E-02 mGy/Mbq
- Absorbed dose (AD average) Total Body [2]: 3.70E-02 ± 0.002 mGy/Mbq and 3.70E-02 mGy/Mbq
- Absorbed dose (AD average) Urinary Bladder Wall [2]: 2.81E-02 mGy/Mbq
- Effective dose (average) (ICRP 89 Adult Male, extrapolated, in mSv/MBq (unit assumed)): 2.91E-02
- higher tissue doses vs. the 177Lu-labeled analogs (human extrapolation, average over tissues): ~ 38%
